Measured values published in ChEMBL document CHEMBL2021903, “3-Deoxy-3,4-dehydro analogs of XM462. Preparation and activity on sphingolipid metabolism and cell fate” (Bioorg Med Chem, 2012).
Activity calls are given as the source filed them. The rule behind the calls is not given here.

Assays:
[1] = target: T1, Sphingolipid delta(4)-desaturase DES1 (Homo sapiens, UniProt O15121); test: Inhibition of Des1 in human HCT116 cells assessed as formation of CerC6NBD from dhCerC6NBD after 4 hrs by HPLC-FD analysis
T1 sequence (O15121 whole entry): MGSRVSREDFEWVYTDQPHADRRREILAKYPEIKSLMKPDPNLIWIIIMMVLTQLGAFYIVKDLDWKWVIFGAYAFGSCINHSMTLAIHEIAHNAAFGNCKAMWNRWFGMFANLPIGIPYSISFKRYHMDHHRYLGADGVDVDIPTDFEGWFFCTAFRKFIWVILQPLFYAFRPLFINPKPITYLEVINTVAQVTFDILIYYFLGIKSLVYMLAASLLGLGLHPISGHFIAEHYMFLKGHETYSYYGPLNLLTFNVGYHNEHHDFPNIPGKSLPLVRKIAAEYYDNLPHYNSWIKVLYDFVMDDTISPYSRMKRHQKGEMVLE

[2] = target: T1, Sphingolipid delta(4)-desaturase DES1; test: Inhibition of Des1 in human A549 cells assessed as formation of CerC6NBD from dhCerC6NBD after 4 hrs by HPLC-FD analysis
[3] = target: T2, Sphingomyelin phosphodiesterase (Homo sapiens) (UniProt P17405); test: Inhibition of aSMase expressed in human A549 cells using 6-hexadecanoylamino-4-methylumbelliferylphosphorylcholine as substrate at 10 uM after 2 hrs by spectrophotometry; type: cell-based
T2 sequence (whole entry): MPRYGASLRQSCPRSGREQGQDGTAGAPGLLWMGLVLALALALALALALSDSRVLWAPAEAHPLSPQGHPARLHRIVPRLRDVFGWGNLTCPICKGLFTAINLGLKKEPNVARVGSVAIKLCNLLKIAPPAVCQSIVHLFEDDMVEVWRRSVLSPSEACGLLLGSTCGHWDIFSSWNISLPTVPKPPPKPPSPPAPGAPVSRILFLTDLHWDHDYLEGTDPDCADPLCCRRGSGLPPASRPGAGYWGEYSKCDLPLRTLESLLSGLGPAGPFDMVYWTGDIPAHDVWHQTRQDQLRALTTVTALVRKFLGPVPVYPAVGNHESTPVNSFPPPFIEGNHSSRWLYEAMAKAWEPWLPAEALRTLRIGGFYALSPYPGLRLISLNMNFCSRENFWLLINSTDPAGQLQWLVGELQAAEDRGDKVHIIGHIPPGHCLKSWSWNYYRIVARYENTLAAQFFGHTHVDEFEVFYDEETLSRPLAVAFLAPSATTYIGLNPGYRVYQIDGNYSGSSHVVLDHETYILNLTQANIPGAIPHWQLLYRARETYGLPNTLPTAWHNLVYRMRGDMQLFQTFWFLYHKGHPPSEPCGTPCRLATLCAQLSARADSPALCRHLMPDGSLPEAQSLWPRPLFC

[4] = target: T3, Lysosomal acid glucosylceramidase (Homo sapiens) (UniProt P04062); test: Inhibition of glucocerebrosidase in human A549 cells using 4-methylumbelliferyl beta-D-glucoside as substrate at 10 uM after 45 mins by spectrophotometry; type: cell-based
T3 sequence (whole entry): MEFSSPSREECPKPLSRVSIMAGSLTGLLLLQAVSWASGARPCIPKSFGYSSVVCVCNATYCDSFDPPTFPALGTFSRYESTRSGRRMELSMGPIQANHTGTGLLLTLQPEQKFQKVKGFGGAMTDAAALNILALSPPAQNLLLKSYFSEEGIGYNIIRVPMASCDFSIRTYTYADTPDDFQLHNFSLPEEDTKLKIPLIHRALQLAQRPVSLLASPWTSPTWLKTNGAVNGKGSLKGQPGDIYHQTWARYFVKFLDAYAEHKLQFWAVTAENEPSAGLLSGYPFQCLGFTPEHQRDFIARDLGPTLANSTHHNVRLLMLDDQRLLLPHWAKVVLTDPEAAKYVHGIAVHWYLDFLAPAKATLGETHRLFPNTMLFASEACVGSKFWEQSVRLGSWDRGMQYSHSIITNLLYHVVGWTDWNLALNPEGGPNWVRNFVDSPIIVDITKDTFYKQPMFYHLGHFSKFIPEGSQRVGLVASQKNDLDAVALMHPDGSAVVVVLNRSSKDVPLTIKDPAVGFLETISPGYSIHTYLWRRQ

[5] = target: T3, Lysosomal acid glucosylceramidase (Homo sapiens); test: Inhibition of glucocerebrosidase in human A549 cells using 4-methylumbelliferyl beta-D-glucoside as substrate at 20 uM after 45 mins by spectrophotometry; type: cell-based
[6] = target: T2, Sphingomyelin phosphodiesterase (Homo sapiens); test: Inhibition of aSMase expressed in human A549 cells using 6-hexadecanoylamino-4-methylumbelliferylphosphorylcholine as substrate at 20 uM after 2 hrs by spectrophotometry; type: cell-based
[7] = target: T3, Lysosomal acid glucosylceramidase (Homo sapiens); test: Inhibition of glucocerebrosidase in human A549 cells using 4-methylumbelliferyl beta-D-glucoside as substrate at 40 uM after 45 mins by spectrophotometry; type: cell-based
[8] = target: T2, Sphingomyelin phosphodiesterase (Homo sapiens); test: Inhibition of aSMase expressed in human A549 cells using 6-hexadecanoylamino-4-methylumbelliferylphosphorylcholine as substrate at 40 uM after 2 hrs by spectrophotometry; type: cell-based

Question: Which results are given for CCCCCCCCCCCCCS/C=C/[C@H](CO)NC(=O)CCCCCCC?
Answer: IC50 [1]: 18.8 µM; IC50 [2]: 18.1 µM; inhibition [3]: inactive; inhibition [4]: inactive

Question: CCCCCCCCCCCCCS/C=C/[C@H](CO)NC(=O)C(C)(C)C was tested. Which inhibition [5] did it give?
Answer: The inhibition was “inactive”.

Question: And the inhibition [6]?
Answer: The inhibition was “inactive”.

Question: With CCCCCCCCCCCCCS/C=C/[C@H](CO)NC(=O)c1ccc(C(C)(C)C)cc1 as the molecule, how does the inhibition [7] read?
Answer: Its inhibition is “inactive”.

Question: What about the inhibition [8] of the same molecule?
Answer: Its inhibition is “inactive”.
